Counter-ions that a name gives are not always drawn.
Molecular target: T1, N-type calcium channel (Homo sapiens, UniProt Q00975)
T1 construct: Cell line was differentiated according to the method described in FEBS Lett. (1988) 235 178-182; endogenous in cells; host or cells: unnamed cell line, differentiated per FEBS Lett. (1988) 235 178-182
Test: Determination of inhibitory activity on N-type calcium channel (Fura-2 calcium influx, KCl depolarization, with nifedipine)
Type: cell-based
Conditions: compound at final concentration of 3 μM, depolarized with 80 mM KCl, Fura-2 fluorescence, read-out: Inhibitory effect on calcium flow (%)
Experimental: Determination of Inhibitory Activity on N-type Calcium Channel:
Cell line was differentiated according to the method described in FEBS Lett. (1988) 235 178-182. The cell was loaded with fluoriescent reagent, Fura-2 AM (at the final concentration of 10 μM), at 37° C. for 30 minutes and suspended in Krebs-buffer containing HEPES (25 mM) to obtain the cell suspension. The obtained cell suspension was incubated in the presence or absence of the compounds of the present invention with nifedipine for 5 minutes. The cell was depolarized by adding potassium chloride solution (at the final concentration of 80 mM) thereto and then a fluorescence intensity at the emission wavelength of 500 nm excited by the UV of 340 nm and 380 nm alternately was measured using the intracellular calcium analyzer (Nippon Bunko Co., CAF-110). The inhibitory activity of the compound of the present invention (at the final concentration of 3 μM) on calcium influx into the cell was calculated from the difference in changing the fluorescence intensity at peak (ΔR) according to the following equation. [formula]

T1 sequence (Q00975 whole entry): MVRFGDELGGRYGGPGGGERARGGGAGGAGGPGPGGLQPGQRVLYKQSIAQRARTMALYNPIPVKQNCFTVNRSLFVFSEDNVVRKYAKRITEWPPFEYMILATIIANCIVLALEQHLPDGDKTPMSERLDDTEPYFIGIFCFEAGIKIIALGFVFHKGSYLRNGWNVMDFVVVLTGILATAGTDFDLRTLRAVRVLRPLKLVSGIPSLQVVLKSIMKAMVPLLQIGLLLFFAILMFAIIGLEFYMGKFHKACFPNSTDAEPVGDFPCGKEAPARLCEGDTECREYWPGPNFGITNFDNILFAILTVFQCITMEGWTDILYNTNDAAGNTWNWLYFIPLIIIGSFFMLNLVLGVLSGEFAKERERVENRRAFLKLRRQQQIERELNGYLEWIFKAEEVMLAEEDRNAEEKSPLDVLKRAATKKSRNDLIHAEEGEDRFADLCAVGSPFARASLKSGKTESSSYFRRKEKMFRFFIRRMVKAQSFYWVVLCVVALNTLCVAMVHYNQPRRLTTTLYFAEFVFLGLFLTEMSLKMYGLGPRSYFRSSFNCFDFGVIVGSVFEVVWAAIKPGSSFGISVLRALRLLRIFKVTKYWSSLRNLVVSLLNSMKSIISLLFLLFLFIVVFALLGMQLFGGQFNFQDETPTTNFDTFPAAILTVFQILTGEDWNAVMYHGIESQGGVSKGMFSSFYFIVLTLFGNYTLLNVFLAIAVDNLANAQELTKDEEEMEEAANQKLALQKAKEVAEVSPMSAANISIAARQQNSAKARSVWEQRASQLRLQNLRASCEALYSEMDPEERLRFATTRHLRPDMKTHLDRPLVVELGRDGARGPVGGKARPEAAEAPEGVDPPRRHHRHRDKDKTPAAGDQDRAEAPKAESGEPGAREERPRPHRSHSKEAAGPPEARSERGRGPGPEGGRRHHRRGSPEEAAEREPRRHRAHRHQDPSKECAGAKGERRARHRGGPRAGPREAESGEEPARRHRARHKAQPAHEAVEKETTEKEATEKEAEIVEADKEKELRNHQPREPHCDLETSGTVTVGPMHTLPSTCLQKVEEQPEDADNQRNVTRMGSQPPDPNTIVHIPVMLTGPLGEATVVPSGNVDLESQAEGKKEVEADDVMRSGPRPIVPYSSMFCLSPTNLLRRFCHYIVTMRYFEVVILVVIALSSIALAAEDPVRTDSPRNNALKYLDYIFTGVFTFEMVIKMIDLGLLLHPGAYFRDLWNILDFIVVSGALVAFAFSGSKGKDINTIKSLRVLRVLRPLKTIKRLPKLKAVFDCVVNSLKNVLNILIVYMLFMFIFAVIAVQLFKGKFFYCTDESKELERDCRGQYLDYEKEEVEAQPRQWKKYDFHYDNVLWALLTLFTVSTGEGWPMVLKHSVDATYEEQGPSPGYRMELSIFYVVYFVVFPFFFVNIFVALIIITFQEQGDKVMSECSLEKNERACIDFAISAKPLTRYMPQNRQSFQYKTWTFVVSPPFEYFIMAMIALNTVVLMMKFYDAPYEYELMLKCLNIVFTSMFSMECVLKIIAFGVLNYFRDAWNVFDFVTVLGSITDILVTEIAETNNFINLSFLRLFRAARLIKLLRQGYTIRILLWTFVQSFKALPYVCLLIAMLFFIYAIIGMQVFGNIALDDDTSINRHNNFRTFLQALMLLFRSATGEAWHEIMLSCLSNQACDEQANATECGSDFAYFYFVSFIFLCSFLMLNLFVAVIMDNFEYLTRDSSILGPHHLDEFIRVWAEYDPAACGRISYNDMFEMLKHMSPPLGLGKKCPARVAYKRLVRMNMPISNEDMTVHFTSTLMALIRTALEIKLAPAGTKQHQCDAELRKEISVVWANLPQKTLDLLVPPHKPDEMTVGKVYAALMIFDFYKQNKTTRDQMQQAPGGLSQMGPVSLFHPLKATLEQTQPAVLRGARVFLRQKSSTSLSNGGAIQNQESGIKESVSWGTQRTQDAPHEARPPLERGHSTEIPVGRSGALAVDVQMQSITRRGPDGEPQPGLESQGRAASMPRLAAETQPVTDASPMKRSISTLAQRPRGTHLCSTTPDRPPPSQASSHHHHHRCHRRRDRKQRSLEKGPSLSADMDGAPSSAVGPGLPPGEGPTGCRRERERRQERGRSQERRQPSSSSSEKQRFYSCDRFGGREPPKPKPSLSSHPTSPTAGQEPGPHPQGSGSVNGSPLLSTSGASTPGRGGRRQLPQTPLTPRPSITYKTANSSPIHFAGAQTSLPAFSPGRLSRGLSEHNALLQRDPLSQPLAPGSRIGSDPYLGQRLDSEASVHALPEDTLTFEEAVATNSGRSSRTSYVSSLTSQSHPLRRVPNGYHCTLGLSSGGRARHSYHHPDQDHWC

Row | Compound | inhibition at 3 µM
1 | CC(C)(C)CC(=O)N1CSC[C@H]1C(=O)N[C@@H](CSCC1CCCCC1)C(=O)NC1CCN(Cc2ccccc2)CC1 [11 (2), (2R)-N-(1-benzylpiperidin-4-yl)-3-cyclohexylmethylthio-2-((4R)-3-(3,3-dimethylbutyryl)thiazolidin-4-ylcarbonylamino)propanamide.hydrochloride] | 89%
2 | COCCOC(=O)N1CSC[C@H]1C(=O)N[C@@H](CSCC1CCCCC1)C(=O)NC1CCN(Cc2ccccc2)CC1 [compound 11] | 81%

From patent publication US6903119B1, “Amino acid derivatives and drugs containing the same as the active ingredient” (Ono Pharmaceutical Co., Ltd., priority 1998, dated 2005)
